ChEMBL document CHEMBL1201862, “PubChem BioAssay data set” (2004)
Calls of active or inactive are those of the source. Unless noted, the rule behind the calls is not given here.

Columns and labels:
[1] = biological target: T1, Neuropeptides B/W receptor type 1 (Homo sapiens, UniProt P48145); assay: human NPBW1 receptor blockade, IC50 – cell-based, fluorescence, dose response, set 6, late-stage follow-up (AID 588583); type: functional
T1 sequence (P48145 whole entry): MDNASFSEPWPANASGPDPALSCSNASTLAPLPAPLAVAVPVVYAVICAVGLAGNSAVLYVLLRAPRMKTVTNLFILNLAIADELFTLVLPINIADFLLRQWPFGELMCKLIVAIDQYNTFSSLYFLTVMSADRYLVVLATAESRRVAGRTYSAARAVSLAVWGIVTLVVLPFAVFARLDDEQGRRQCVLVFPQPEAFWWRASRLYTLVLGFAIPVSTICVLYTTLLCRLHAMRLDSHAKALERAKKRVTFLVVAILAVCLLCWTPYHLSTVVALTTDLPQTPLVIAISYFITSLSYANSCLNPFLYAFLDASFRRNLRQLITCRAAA

[2] = biological target: Melanin-concentrating hormone receptor 1 (Homo sapiens, UniProt Q99705); assay: Late-stage fluorescence-based counterscreen for antagonists of the G-protein coupled receptor 7 (GPR7): cell-based dose response assay to identify antagonists of the melanin-concentrating hormone receptor 1 (MCHR1) Set 6.; type: functional
Sequence of Melanin-concentrating hormone receptor 1 (Q99705 whole entry): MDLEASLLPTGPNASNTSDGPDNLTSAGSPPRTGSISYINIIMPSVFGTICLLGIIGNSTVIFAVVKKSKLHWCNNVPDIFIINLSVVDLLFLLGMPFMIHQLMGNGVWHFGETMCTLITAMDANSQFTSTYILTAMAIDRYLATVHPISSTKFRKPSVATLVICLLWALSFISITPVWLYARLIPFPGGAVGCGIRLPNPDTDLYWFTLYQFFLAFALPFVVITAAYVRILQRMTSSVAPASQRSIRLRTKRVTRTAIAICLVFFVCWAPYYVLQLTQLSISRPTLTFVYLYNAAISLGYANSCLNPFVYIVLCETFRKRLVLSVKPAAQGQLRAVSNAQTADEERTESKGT

[3] = biological target: T2, Apoptotic protease-activating factor 1 (Homo sapiens, UniProt O14727); assay: SAR analysis of small molecule Activators of Apaf-1 in a Fluorescent assay.; type: functional; settings: read-out: EC50_Mean;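 also: caspase-3 cleavage of fluorogenic Rh110 DEVD substrate downstream of apoptosome activation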
T2 sequence (O14727 whole entry): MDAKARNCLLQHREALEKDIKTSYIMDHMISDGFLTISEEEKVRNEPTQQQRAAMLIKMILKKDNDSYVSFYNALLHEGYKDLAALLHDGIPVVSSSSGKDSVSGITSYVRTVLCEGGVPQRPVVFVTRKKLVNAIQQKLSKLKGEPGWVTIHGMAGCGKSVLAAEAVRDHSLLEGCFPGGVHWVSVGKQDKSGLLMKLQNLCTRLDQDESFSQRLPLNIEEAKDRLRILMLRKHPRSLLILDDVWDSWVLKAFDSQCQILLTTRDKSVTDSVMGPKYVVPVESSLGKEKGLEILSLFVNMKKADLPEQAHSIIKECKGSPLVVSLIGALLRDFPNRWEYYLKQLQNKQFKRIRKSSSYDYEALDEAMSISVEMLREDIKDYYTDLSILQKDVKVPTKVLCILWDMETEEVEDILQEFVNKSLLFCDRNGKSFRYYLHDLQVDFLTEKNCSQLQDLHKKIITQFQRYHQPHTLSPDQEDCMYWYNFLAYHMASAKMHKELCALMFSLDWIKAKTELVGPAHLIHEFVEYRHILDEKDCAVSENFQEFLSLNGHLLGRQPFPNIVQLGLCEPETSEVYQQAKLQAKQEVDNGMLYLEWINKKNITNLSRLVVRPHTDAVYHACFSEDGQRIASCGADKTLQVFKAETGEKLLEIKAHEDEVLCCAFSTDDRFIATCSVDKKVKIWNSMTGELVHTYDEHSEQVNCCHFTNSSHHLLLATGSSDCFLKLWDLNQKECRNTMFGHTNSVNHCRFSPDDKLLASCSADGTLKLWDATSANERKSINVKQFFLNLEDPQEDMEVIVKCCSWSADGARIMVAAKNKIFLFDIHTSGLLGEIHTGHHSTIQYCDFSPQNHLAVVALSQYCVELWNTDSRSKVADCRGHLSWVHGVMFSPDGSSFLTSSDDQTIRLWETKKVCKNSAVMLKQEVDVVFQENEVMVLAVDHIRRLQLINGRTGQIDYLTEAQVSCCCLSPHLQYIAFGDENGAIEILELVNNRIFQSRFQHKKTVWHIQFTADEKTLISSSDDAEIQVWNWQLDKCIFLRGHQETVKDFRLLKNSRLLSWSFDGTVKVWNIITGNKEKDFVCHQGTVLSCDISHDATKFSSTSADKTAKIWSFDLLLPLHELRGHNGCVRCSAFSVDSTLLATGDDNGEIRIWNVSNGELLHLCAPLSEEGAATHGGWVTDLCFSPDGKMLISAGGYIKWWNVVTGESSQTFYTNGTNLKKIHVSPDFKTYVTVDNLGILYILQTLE

[4] = biological target: Adenosylmethionine-8-amino-7-oxononanoate aminotransferase (Mycobacterium tuberculosis, UniProt P9WQ81); assay: Mycobacterium tuberculosis BioA enzyme inhibitor Measured in Biochemical System Using Plate Reader - 2163-02_Inhibitor_Dose_CherryPick_Activity.; type: functional, Mycobacterium tuberculosis UT205
Sequence of Adenosylmethionine-8-amino-7-oxononanoate aminotransferase (P9WQ81 whole entry): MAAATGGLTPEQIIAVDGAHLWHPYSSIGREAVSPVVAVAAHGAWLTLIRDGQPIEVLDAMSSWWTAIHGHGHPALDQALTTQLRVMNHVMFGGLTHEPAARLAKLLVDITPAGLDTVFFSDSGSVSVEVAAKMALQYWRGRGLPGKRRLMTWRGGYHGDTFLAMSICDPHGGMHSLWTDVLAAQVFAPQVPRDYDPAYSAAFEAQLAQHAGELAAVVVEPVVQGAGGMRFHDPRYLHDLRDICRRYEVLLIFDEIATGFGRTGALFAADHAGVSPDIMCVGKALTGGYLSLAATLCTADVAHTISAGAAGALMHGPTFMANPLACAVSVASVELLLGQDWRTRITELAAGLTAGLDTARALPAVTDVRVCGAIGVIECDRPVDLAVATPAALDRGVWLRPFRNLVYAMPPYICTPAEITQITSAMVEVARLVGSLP

[5] = biological target: T3, Diacylglycerol lipase-beta (Mus musculus, UniProt Q91WC9); assay: Late stage assay provider results from the probe development effort to identify inhibitors of diacylglycerol lipase, beta (DAGLb): LCMS-based biochemical dose response assay.; type: functional
T3 sequence (Q91WC9 whole entry): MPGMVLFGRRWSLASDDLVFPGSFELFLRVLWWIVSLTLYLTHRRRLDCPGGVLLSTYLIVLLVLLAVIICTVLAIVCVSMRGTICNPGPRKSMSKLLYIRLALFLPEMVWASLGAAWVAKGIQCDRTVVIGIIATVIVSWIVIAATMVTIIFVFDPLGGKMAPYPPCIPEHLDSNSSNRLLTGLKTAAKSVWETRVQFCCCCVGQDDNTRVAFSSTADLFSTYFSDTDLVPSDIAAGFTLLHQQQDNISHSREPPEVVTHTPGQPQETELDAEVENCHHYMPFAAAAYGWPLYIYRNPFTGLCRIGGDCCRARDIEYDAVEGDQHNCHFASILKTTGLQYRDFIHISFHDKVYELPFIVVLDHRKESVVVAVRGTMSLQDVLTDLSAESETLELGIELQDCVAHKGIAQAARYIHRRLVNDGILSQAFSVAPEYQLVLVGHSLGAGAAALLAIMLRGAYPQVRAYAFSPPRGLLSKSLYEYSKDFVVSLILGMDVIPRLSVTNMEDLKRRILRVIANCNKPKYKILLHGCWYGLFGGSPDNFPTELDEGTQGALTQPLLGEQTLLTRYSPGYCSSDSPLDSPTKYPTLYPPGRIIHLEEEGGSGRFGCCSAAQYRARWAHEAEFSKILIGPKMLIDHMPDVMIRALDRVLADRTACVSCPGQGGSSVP

[6] = biological target: T3, Diacylglycerol lipase-beta; assay: Late stage assay provider results from the probe development effort to identify inhibitors of diacylglycerol lipase, beta (DAGLb): fluorescence-based dose-response biochemical gel-based competitive Activity-Based Protein Profiling (ABPP) inhibition of DAGLb in vitro.; type: functional

**Q.** Which IC50 [1] does the source give for `O=c1c(-c2ccccc2)c(Br)cnn1Cc1cccc2ccccc12` here?
**A.** 12 µM (inactive)

**Q.** And the IC50 [2]?
**A.** 12 µM (inactive)

**Q.** `O=C(O)CC(CCc1ccccc1)NC(=O)c1cccs1` (stereo unspecified) was tested. Which EC50 [3] did it give?
**A.** > 100 µM (inactive)

**Q.** `O=C(N[C@H]1CC[C@@H](CCn2cc(-c3cccnc3)nn2)O[C@H]1CO)c1ccccc1F` was tested. Which AC50 [4] did it give?
**A.** 12.3 µM (active)

**Q.** Which IC50 [5] does the source give for `O=C(N1CCCCC1Cc1ccccc1)n1cc(-c2ccc(-c3ccccc3)cc2)nn1` (stereo unspecified) here?
**A.** 0.1 µM (active)

**Q.** What about the IC50 [6] of the same compound?
**A.** 0.043 µM (active)
